Laboratory results published in patent US11150251B2, “Bi-functional arginine-glycine-aspartic acid (RGD) peptides and methods to promote angiogenesis” (Clemson University Research Foundation, priority 2016, dated 2021).

Tested on: HUVECs
Assay: HUVEC vascular network formation in 3D multi-signaling alginate hydrogels (integrin-binding peptide + QK peptide)
Assay type: cell-based, human
Conditions: 5% (w/w) MMP-responsive QK peptides, preliminary data
Description: To synergize with the α1 peptide, we used the α1 peptide and an MMP-responsive QK peptide (i.e., GPQG↓IAGKLTWQELYQLKYKGI, SEQ ID NO:41) to prepare an alginate-based injectable, multi-signaling hydrogels (FIG. 9). The MMP-responsive QK peptide was selected to introduce cell-dictated local release of angiogenic factors to recapitulate the pro-angiogenic microenvironment in vivo, where matrix bound VEGF is released by MMPs. Alginates was selected because it has been used as a biocompatible, injectable hydrogel-forming material to treat ischemic diseases.
We developed a modular approach to prepare the multi-signaling hydrogels (FIG. 10). Briefly, we have prepared alginates functionalized with α1 peptide (10% (w/w)) as well as alginates functionalized with MMP-responsive QK peptide (10% (w/w)) using click chemistry. We then mixed these two alginates at a ratio 1:1 (w/w) to prepare multi-signaling hydrogels to simultaneously engage αvβ3, VLA-6 integrins and VEGFR2. This modular approach allowed us to rapidly prepare alginates with different peptide functionalization to screen for an optimal formulation to support EC morphogenesis.

GPQG↓IAGKLTWQELYQLKYKGI (GPQGIAGKLTWQELYQLKYKGI) [MMP-responsive QK peptides, QK peptide with MMP degradable linkage]
EC vascular network formation at given QK peptide content: sufficient to promote EC vascular network formation
